Measured values taken from the NIST ThermoML archive (doi:10.1021/je400581e).
± gives the expanded uncertainty stated by the source.

Tests used:
[1] = Liquid; for mass density: 298.15 K, 101.33 kPa, Vibrating tube method
[2] = refractive index (Na D-line) (dimensionless); details: 298.15 K; 101.33 kPa; Liquid; Standard Abbe refractometry

CC(C)CO [2-methyl-1-propanol]
Details | mass density [kg/m3] | refractive index
[1] | 795.35 ± 0.15 | –
[2] | – | 1.3927 ± 0.0007

[1], Ebulliometric method (Recirculating still)
Details | vapor or sublimation pressure [kPa]
347.84 K | 26.2 ± 0.15
351.07 K | 30.19 ± 0.17
359.54 K | 43.66 ± 0.19
362.99 K | 50.45 ± 0.23
368.56 K | 63.25 ± 0.26
372.09 K | 72.73 ± 0.42
372.56 K | 74.66 ± 0.42
375.06 K | 81.58 ± 0.32
378.19 K | 91.8 ± 0.36
380.73 K | 101.32 ± 0.38
382.25 K | 106.5 ± 0.35

CC(C)CCO [3-methylbutan-1-ol]
Details | mass density [kg/m3] | refractive index
[1] | 806.21 ± 0.12 | –
[2] | – | 1.4035 ± 0.0007

[1]
Details | vapor or sublimation pressure [kPa]
395.68 K | 74.7 ± 6.6
404.7 K | 101.3 ± 12
404.71 K | 101.3 ± 3.4

CC(C)O [propan-2-ol]
Details | mass density [kg/m3] | refractive index
[1] | 779.36 ± 0.15 | –
[2] | – | 1.374 ± 0.0007

[1], Ebulliometric method (Recirculating still)
Details | vapor or sublimation pressure [kPa]
325.2 K | 26.21 ± 0.16
328 K | 30.2 ± 0.19
335.73 K | 43.66 ± 0.2
338.88 K | 50.43 ± 0.25
343.99 K | 63.24 ± 0.28
347.25 K | 72.74 ± 0.33
347.86 K | 74.65 ± 0.34
349.98 K | 81.59 ± 0.36
352.84 K | 91.8 ± 0.38
355.37 K | 101.3 ± 0.4
356.56 K | 106.52 ± 0.45
